Tested on: unilateral vestibular neurectomized cats (UVN)
Experiment: Support surface measurement: recovery of static posture after unilateral vestibular neurectomy
Format: in vivo, cat
Details: for Normalized posture area: DAY 2 of treatment, pre-operative value = 1, control 4.6
Experimental: We have previously described the surgery for vestibular neurectomy ([35]). “Adult male cats weighing 4–5 kg were anesthetized with ketamine (20 mg/kg, i.m.; Rhône Poulenc, Mérieux, France), received an analgesic (Tolfenamic acid: tolfedine, 0.5 ml, i.m.; Vetoquinol, Lure, France) and were kept at physiological body temperature using a blanket. The vestibular nerve was sectioned on the left-side at the post-ganglion level in order to leave the auditory division intact after mastoidectomy, partial destruction of the bony labyrinth, and surgical exposure of the internal auditory canal. Animals were maintained under antibiotics for 7 days and analgesics for 3 days.”
One […] group (N = 4: cats 10–13) was submitted to a UVN and received post-operatively a vehicle (placebo group). Two groups of cats were treated with betahistine at the lower dose of 0.2 mg/kg/day (N = 3: cats 14–16) or at the higher dose of 2 mg/kg/day (N = 3: cats 17–19). Another group of cats received the combination of both betahistine at 0.2 mg/kg/day plus selegiline at the dose of 1 mg/kg/day (N = 3: cats 20–22).
Placebo treatment was pursued until full recovery of posture control in the control group, that is, 40 days on average. The same post-lesion period was investigated in the three experimental groups receiving betahistine or betahistine + selegiline.
We have described in previous papers how posture deficits and recovery were evaluated ([21]). The surface delimited by the four legs of the cat was measured while standing erect at rest, without walking. “Support surface is considered a good estimate of postural control since it reflects the cat's behavioral adaptation to compensate the static vestibulospinal deficits induced by the vestibular lesion. […] To quantify the support surface, cats were placed in a device with a graduated transparent floor that allowed them to be photographed from underneath. Five repeated measurements were done for each cat tested at each post-operative time, and an average was calculated for each experimental session. The support surface was measured as the surface delimited by the four legs by an image analysis system (Canvas, 9^TM, Deneba software, Miami, FL). Post-lesion data were compared to pre-lesion values by using individual references, each animal being its own control. Recovery of static posture function was assessed by the changes and development of the support surface over time. The recovery was considered as total when the support surface returned to the pre-operative value (unity, i.e., 1).”
Statistical analysis consisted of an ANOVA to test for changes at the different post-lesion days (2, 4, 6, 10, 15, 20, 25, 30, 35, 40 days) for the support surface in each group of cats. Repeated-measure analysis of variance was used to test (1) the effects of betahistine treatment (controls vs. treated cats), (2) the effects of the betahistine dose (0.2 vs. 2 mg/kg), and (3) the effects of additional selegiline on the lowest betahistine dose (0.2 mg/kg betahistine + 1 mg/kg selegiline).
ANOVA was followed by post-hoc analysis (Scheffe-test and multicomparison Fisher's test: Statview II software). Results were considered significant at P < 0.05. To distinguish between chronic and early effects of betahistine treatment a Two-way-ANOVA with day and treatment as discriminating factors was performed (GraphPad Prism 5.0). The Cohen's d-value (two means differences/largest standard deviation) was evaluated to test the size effect.

## CNCCc1ccccn1 [Betahistine, betahistine]
2 mg/kg betahistine group, earlier than controls
  Post-lesion day (D+) of complete recovery of posture: 10
Betahistine (0.2 mg), D+2
  Cohen's d, control versus treatment (support surface): 0.657
Betahistine (0.2 mg), D+4
  Cohen's d, control versus treatment (support surface): 3.289
Betahistine (0.2 mg), D+6
  Cohen's d, control versus treatment (support surface): 2.510
Betahistine (0.2 mg), D+10
  Cohen's d, control versus treatment (support surface): 2.708
Betahistine (0.2 mg), D+15
  Cohen's d, control versus treatment (support surface): 4.224
Betahistine (0.2 mg), D+20
  Cohen's d, control versus treatment (support surface): 2.064
Betahistine (0.2 mg), D+25
  Cohen's d, control versus treatment (support surface): 2.870
Betahistine (0.2 mg), D+30
  Cohen's d, control versus treatment (support surface): 5.146
Betahistine (0.2 mg), D+40
  Cohen's d, control versus treatment (support surface): -1.447
Betahistine (2 mg), D+2
  Cohen's d, control versus treatment (support surface): 2.662
Betahistine (2 mg), D+4
  Cohen's d, control versus treatment (support surface): 3.616
Betahistine (2 mg), D+6
  Cohen's d, control versus treatment (support surface): 2.799
Betahistine (2 mg), D+10
  Cohen's d, control versus treatment (support surface): 5.398
Betahistine (2 mg), D+15
  Cohen's d, control versus treatment (support surface): 7.246
Betahistine (2 mg), D+20
  Cohen's d, control versus treatment (support surface): 13.857
Betahistine (2 mg), D+25
  Cohen's d, control versus treatment (support surface): 8.478
Betahistine (2 mg), D+30
  Cohen's d, control versus treatment (support surface): 6.512
Betahistine (2 mg), D+40
  Cohen's d, control versus treatment (support surface): 3.320
BH 0.2 mg/kg
  Normalized posture area: 3.98
BH 2.0 mg/kg
  Normalized posture area: 2.4
Betahistine 0.2 mg/kg, P < 0.15
  Difference from controls with respect to complete time of recovery (ANOVA): did not significantly differed
Betahistine 0.2 mg/kg, p < 0.01, first week only
  Support surface versus untreated cats, Bonferroni post-test: significant differences at the particular D+4 and D+6 time delays
Betahistine 0.2 mg/kg, same as controls
  Complete time of recovery of posture: around 6 weeks
Betahistine 2 mg/kg, P < 0.026
  Difference from controls with respect to complete time of recovery (ANOVA): differed significantly

Source: article PMC6005348, “Betahistine Treatment in a Cat Model of Vestibular Pathology: Pharmacokinetic and Pharmacodynamic Approaches” (Frontiers in Neurology, 2018)
